Experimental data as given in patent US20190307783A1, “USE OF ANTIVIRALS TO INHIBIT PROTOZOAN VIRUSES” (priority 2016, published 2019).
“Also recorded” adds a separate entry of the source.

What was measured:
L. guyanensis (LgyLRV1+) = assay: Drug-inhibition test: growth of LgyLRV1+ parasites; type: cell-based, Leishmania guyanensis
Lgy LRV1 RDRP = Lgy LRV1 RDRP (Leishmania RNA virus 1 - 4, UniProt Q02382); assay: RDRP assay of purified virions, [α-32P]UTP incorporation; type: biochemical, Leishmania RNA virus 1 (Lgy strain M4147); conditions: concentrations up to 1000 μM; listed as 2CMA
Sequence of Lgy LRV1 RDRP (Q02382 whole entry): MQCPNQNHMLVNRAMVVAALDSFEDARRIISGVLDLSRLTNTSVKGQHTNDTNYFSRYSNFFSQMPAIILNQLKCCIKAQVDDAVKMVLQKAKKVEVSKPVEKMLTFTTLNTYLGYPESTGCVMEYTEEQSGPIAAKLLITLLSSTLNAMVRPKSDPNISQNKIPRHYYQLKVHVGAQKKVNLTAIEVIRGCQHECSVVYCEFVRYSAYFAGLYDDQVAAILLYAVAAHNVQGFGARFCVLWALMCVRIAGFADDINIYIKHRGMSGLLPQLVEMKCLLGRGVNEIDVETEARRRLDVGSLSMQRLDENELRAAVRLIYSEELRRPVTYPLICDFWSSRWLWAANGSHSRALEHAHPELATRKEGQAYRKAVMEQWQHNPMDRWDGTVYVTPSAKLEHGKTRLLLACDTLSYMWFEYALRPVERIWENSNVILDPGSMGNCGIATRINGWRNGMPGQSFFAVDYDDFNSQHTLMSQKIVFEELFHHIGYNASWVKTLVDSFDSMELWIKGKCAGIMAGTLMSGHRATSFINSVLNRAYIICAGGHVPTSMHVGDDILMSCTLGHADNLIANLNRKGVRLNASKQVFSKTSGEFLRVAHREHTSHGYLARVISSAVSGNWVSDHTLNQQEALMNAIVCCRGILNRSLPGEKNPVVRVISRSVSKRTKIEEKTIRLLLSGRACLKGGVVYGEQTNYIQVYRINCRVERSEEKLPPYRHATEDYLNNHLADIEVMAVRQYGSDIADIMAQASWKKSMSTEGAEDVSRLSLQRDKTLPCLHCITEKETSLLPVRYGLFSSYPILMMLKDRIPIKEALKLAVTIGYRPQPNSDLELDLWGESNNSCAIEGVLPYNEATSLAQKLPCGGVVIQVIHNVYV
Description: RDRP assays were carried out with LRV1 virions purified from Lgy strain M4147 by an established cesium chloride (CsCl) equilibrium ultracentrifugation procedure {Widmer, 1989; Widmer, 1990}. Following separation, virus particles were detected and quantified by their reactivity with an anti-capsid antibody (FIG. 21). We reproducibly observed three overlapping ‘peaks’, designated low-, medium-, and high-density (LD, MD and HD) in order of increasing density. […] The densities of the Lgy LRV1 LD, MD and HD peaks were 1.29, 1.36 and 1.41 g/mL, in good agreement with the densities of L-A virus particles bearing ssRNA- and dsRNA- (1.31 and 1.41 g/mL, respectively) {Esteban, 1986}. […]
To measure RDRP activity, purified virions were allowed to incorporate [α-^32P]UTP in the presence of the remaining nucleoside triphosphates for 1 hour, a time chosen to allow one round of transcription or replication of the viral genome {Widmer, 1990}. RNA was purified and separated by native gel electrophoresis, and the products were visualized and quantified. […]
RDRP activity of purified virions was measured using an [α-^32P]UTP incorporation assay described previously{Widmer, 1990}. […] The standards lane was excised and stained with ethidium bromide, while the radiolabeled products were detected by exposing an imaging plate for 24 hours and reading it with a FLA-5100 phosphoimager (Fujifilm, Tokyo, Japan). […]

LbrLRV1 = assay: LRV1 inhibition in L. braziliensis strains bearing LRV1; type: cell-based, Leishmania RNA virus 1 in Leishmania braziliensis; conditions: Leishmania braziliensis
Description: (§1) For 2CMA, the EC50 was estimated to be ˜3 μM for LRV1 capsid inhibition, versus >100 μM for parasite growth (FIG. 11A), at least 30-fold selective. […] Several studies were carried out with L. braziliensis strains bearing LRV1 (12). The 2CMA EC50 for LbrLRV1 was similar to that seen with LgyLRV1 (˜3 μM); however, parasites were somewhat more susceptible to growth inhibition (EC50 50-100 μM). Because the available quantities of 7d2CMA were limiting and both compounds were similarly selective for L. guyanensis, we focused thereafter on 2CMA.
(§2) Most studies were performed using luciferase-expressing transfectants of L. guyanensis (MHOM/BR/78/M4147) described previously [LRV1^+ LgyM4147/SSU:IR2SAT-LUC(b)c3 and LRV^−LgyM4147/pX63HYG/SSU:IR2SAT-LUC(b)c4] (54); these lines are termed LgyLRV1^+ and LgyLRV1^−, respectively. Two strains of LRV1^+L. braziliensis were examined: LEM2780 (MHOM/BO/90/CS) and LEM3874 (MHOM/BO/99/IMT252 no. 3) (12). Parasites were grown in Schneider's media (Sigma Aldrich, St. Louis, Mo., USA) prepared according to the supplier's instructions with pH adjusted to 6.5 and supplemented with 0.76 mM hemin, 2 μg/mL biopterin, 50 U/mL penicillin, 50 μg/mL streptomycin, and 10% (vol/vol) heat-inactivated FBS. Cell concentrations were determined using a Coulter Counter ([…], Indianapolis, Ind., USA).

[1] = test system: L. braziliensis strains bearing LRV1; assay: Growth inhibition of L. braziliensis strains bearing LRV1; type: cell-based; conditions: Leishmania braziliensis
Description: as §1, §2

dsRNA LRV1 genome = assay: Quantitative anti-dsRNA slot blots of LRV1 genome; type: cell-based, Leishmania RNA virus 1 in Leishmania guyanensis; conditions: LgyLRV1+
Description: RNA slot blot analysis was performed as described previously (36).

[2] = test system: LRV1 (LgyLRV1 capsid levels); conditions: from Kuhlmann, 2017; cited from earlier work
[3] = animal models; cited from earlier work

## C[C@@]1(O)[C@H](O)[C@@H](CO)O[C@H]1n1cnc2c(N)ncnc21 [2′C-methyadenosine, 2′-C-methyladenosine]
L. guyanensis (LgyLRV1+); L. guyanensis at 100 μM, untreated 6.4 hours
  Population doubling time: 8.5 h
L. guyanensis (LgyLRV1+); Leishmania guyanensis, 48 h, LgyLRV1+, tested at 100 μM, growth after 2 days, read-out: Percent control (density)
  activity at 100 µM: 72%
L. guyanensis (LgyLRV1+); Leishmania guyanensis, L. guyanensis, relative cellular growth rate, titration, read-out: EC50 for parasite growth
  EC50: > 100 µM
L. guyanensis (LgyLRV1+); Leishmania guyanensis, tested at 100 μM, read-out: Inhibition of parasite density
  inhibition at 100 µM: 30%
L. guyanensis (LgyLRV1+); LgyLRV1+, tested at 100 μM, growth after 2 days
  Density (cells/mL): 1.22E+7 cells/mL
Lgy LRV1 RDRP
  Inhibition of RDRP activity, in words: did not measurably inhibit; also recorded: completely inactive
LbrLRV1
  EC50: ~3000 nM
[1]
  EC50: 50 to 100 µM
dsRNA LRV1 genome
  EC50: ~1000 nM
[2]
  Concentration that eradicates / completely inhibits LRV1 replication: 10 µM
[3]
  Serum half-life: 18 min
